How the values were obtained:
OCI-Ly1 = OCI-Ly1 sensitivity assay (CTG viability); assay type: cell-based, human; details: for OCI-Ly1 cell viability, Jumonji-inhibitors: OCI-Ly1, range tested, FIG. 5
Experimental: (§1) For the Cell Titer Glo assays (CTG), between 3000-10,000 cells were plated in a 96 well plate (in triplicates). The cells were allowed to settle for 24 hours before either small molecule(s) or DMSO was added at indicated concentrations. The treatment was performed for indicated days (preferably 2 days for a “snap-shot” experiments). CTG signal was used to assess viability after 2 days according to manufacturer's protocol (Promega Corporation; Madison, Wis.).
When performing the comparative test of GSK126 and JIB04, daily readings were taken using the manufacturer's protocol for CTG signal after day 2 (for JIB04), and after day 5 (for GSK126).
For OCI-Ly1 sensitivity assay, OCI-Ly1 cells were grown at a density of 1-3×10^6 cells/mL and 3000-10,000 cells were plated in a 96-well plate (in triplicates). The cells were allowed to settle for 24 hours before either the indicated small molecule(s) or DMSO was added at indicated concentrations. CTG signal was used to assess viability after 2 days according to manufacturer's protocol (Promega Corporation; Madison, Wis.). Small molecules used in each experiment are stated in the respective figures along with their concentrations. Results are shown in FIGS. 10, 11, 13, 14, 15, 16 and 22.

DB = assay: Cell Titer Glo (CTG) viability, JIB04 dose response; assay type: cell-based; details: Homo sapiens, 48 h; DB (DLBCL), 2 days treatment, FIG. 2
Experimental: as §1

Farage = assay: as above; assay type: cell-based; details: 48 h; Farage (DLBCL), 2 days treatment, FIG. 2
Experimental: as §1

HL-60 = assay: as above; assay type: cell-based; details: Homo sapiens, 48 h; HL-60 (leukemia), 2 days treatment, FIG. 2; read-out: effective EC50
Experimental: as §1

Jurkat = assay: as above; assay type: cell-based; details: Homo sapiens, 48 h; Jurkat (leukemia), 2 days treatment, FIG. 2; read-out: effective EC50
Experimental: as §1

MV4-11 = assay: as above; assay type: cell-based; details: Homo sapiens, 48 h; MV4-11 (leukemia), 2 days treatment, FIG. 2; read-out: effective EC50
Experimental: as §1

SUDHL5 = assay: as above; assay type: cell-based; details: Homo sapiens, SU-DHL-5, 48 h; SUDHL5 (DLBCL), 2 days treatment, FIG. 2
Experimental: as §1

THP-1 = assay: as above; assay type: cell-based; details: Homo sapiens, 48 h; THP-1 (leukemia), 2 days treatment, FIG. 2; read-out: effective EC50
Experimental: as §1

Toledo = assay: as above; assay type: cell-based; details: Homo sapiens, 48 h; Toledo (DLBCL), 2 days treatment, FIG. 2
Experimental: as §1

DLBCL cell lines = assay: Sensitivity of DLBCL cell lines (CTG viability); assay type: cell-based
Experimental: For the Cell Titer Glo assays (CTG), between 3000-10,000 cells were plated in a 96 well plate (in triplicates). The cells were allowed to settle for 24 hours before either small molecule(s) or DMSO was added at indicated concentrations. The treatment was performed for indicated days (preferably 2 days for a “snap-shot” experiments). CTG signal was used to assess viability after 2 days according to manufacturer's protocol (Promega Corporation; Madison, Wis.). For OCI-Ly1 sensitivity assay, OCI-Ly1 cells were grown at a density of 1-3×10^6 cells/mL and 3000-10,000 cells were plated in a 96-well plate (in triplicates). The cells were allowed to settle for 24 hours before either the indicated small molecule(s) or DMSO was added at indicated concentrations. CTG signal was used to assess viability after 2 days according to manufacturer's protocol (Promega Corporation; Madison, Wis.). Small molecules used in each experiment are stated in the respective figures along with their concentrations. Results are shown in FIGS. 10, 11, 13, 14, 15, 16 and 22.

lymphoma cell lines = assay: Annexin V staining apoptosis assay; assay type: cell-based; details: FIG. 4A
Experimental: APC-Annexin V was obtained from BD Pharmingen (Franklin Lakes, N.J.), and Annexin V staining was performed as described by the manufacturer.

PARP = assay: Production of cleaved PARP; assay type: cell-based; details: FIG. 4B
OCI-Ly1 cell lines = assay: Transcriptomics (RNA-seq, GSEA) of JIB04-treated cells; assay type: cell-based, human
Experimental: (§2) Three independent cultures of OCI-Ly1 cell lines were grown till the cultures achieved the cell numbers of approximately 1-1.5*10^6 cells/ml, and then cells were treated with either DMSO or two different JIB04 concentrations (150 nM and 500 nM). RNA was isolated using Trizol method, followed by library preparation using NEBUltraII kit (New England Biolabs; Ipswich, Mass.). After high throughput sequencing of the libraries, FastQc was used for filtering and quality control of the reads followed by read alignment to hg19 assembly of the human genome. Reads were counted by TopHat, differential gene expression analysis was performed in Rstudio. GSEA was performed using the desktop client from the Broad Institute, and the GSEA output was visualized using Rstudio.

[1] = Cell cycle analysis by propidium iodide staining; assay type: cell-based, human; details: different dosage and times, FIG. 7C
From the text: Propidium Iodide Flow Cytometry Kit from Abcam was used to perform cell cycle analysis using propidium iodide staining according to manufacturer's protocol.

[2] = tested on: Ikaros family members (IKZF1, IKZF3); assay: Immunoblotting of Ikaros family members and BCR signaling components; assay type: cell-based; details: JIB04 100 nM or 500 nM, FIG. 20
Experimental: Effect of JIB-04 on Ikaros family members and proximal components of BCR signaling pathway was assayed as follows: One million cells growing under indicated conditions (DMSO or JIB04 treatment; 100 nM or 500 nM) were pelleted by centrifugation at 1000 rpm for 5 min, and then resuspended in RIPA buffer with protease and phosphatase inhibitors. The cell suspension was left on ice for 20 min, and then sonicated using Diagenode water-bath sonicator (15 s. on; 30 s. off, for 15 cycles at max power). After sonication, cell extract was spun at 12000 rpm for 20 min, and the supernatant was collected for immunoblotting. Immunoblotting was performed using standard methods, and the blots were probed using antibodies recognizing indicated proteins.

canonical Wnt signaling = assay: Transcriptomics / ChIP-seq GSEA of Wnt signaling; assay type: cell-based; details: FIGS. 21A-21C
Experimental: as §2
Cells were fixed with 1% formaldehyde for 10 minutes at room temperature before termination with 0.125 M glycine. Cells were then lysed in ChIP buffer (0.6% SDS, 10 mM EDTA, and 50 mM Tris-HCl, pH 8.1) and cross-linked chromatin was sonicated to obtain DNA fragments of 300-800 bp. […] Libraries were quantified by Qubit (Invitrogen), and sequenced using a HiSeq 2000 (Illumina) to generate 50 bp single end reads.

Ly1 cells [3] = assay: In vivo Ly1 luciferase model, bioluminescence imaging; details: NSG mice, 30 mg/kg, 3 times weekly, intra-peritoneal, 2 weeks post treatment, FIGS. 18A-18B
Experimental: For in vivo studies, Ly1 cells, with a luciferase reporter or […], were administered to Nod/SCID− mice (NSG) (6-8 weeks) were used for tail vein injection. Mice administered the Ly1 cells comprising the luciferase reporter were imaged every week after injection using the IVIS Spectrum In Vivo Imaging System (Perkin Elmer). […] JIB04 was administered three times a week, for two weeks, via intra-peritoneal injection in a mix of 90% sesame oil and 10% DMSO mix (vehicle). Mice were imaged each week and images from pre-treatment and 2-weeks after start of treatment with 30 mg/kg (3× a week) JIB04 are shown in FIG. 18A (pre-treatment) and FIG. 18B (post-treatment).

Ly1 cells [4] = assay: In vivo Ly1 model, Kaplan Meier survival; details: mice, compared to vehicle treated mice, FIG. 19
From the text: Mice administered Ly1 cells without the luciferase reporter were monitored post administration, and fraction surviving was plotted (FIG. 19) using the Kaplan Meier Survival Analysis of Graphpad Prism.

[5] = JIB04 150 nM and 500 nM, FIG. 7A

CC(C)c1c(-c2ccccc2)[nH]c2c(C#N)cnn2c1=O [CPI-455]
OCI-Ly1 cell viability, Jumonji-inhibitors (OCI-Ly1): only JIB04 decreased OCI-Ly1 cell viability significantly

CCOC(=O)CCNc1cc(N2CCc3ccccc3CC2)nc(-c2ccccn2)n1 [GSK-J4]
OCI-Ly1 cell viability, Jumonji-inhibitors (OCI-Ly1): only JIB04 decreased OCI-Ly1 cell viability significantly

Clc1ccc(N/N=C(\c2ccccc2)c2ccccn2)nc1 [JIB04, 5-Chloro-2-[(E)-2-[phenyl(pyridin-2-yl)methylidene]hydrazin-1-yl]pyridine]
EC50 (DB): < 250 nM
EC50 (Farage): < 250 nM
EC50 (HL-60): ~1000 nM
EC50 (Jurkat): ~1000 nM
EC50 (MV4-11): ~1000 nM
EC50 (SUDHL5): < 250 nM
EC50 (THP-1): ~1000 nM
EC50 (Toledo): < 250 nM
EC50 (OCI-Ly1; Homo sapiens, 48 h, OCI-Ly1 (DLBCL), 2 days treatment, FIG. 2): < 250 nM
OCI-Ly1 cell viability, Jumonji-inhibitors (OCI-Ly1): decreased OCI-Ly1 cell viability significantly
JIB04 potency (CTG signal relative to DMSO) when combined with Ibrutinib (OCI-Ly1; combined with Ibrutinib, compared to JIB04 alone, FIG. 16): increased
reduction of CTG signal, E isomer versus Z isomer (OCI-Ly1; trans configuration (E isomer) relative to cis configuration (Z isomer), FIG. 13): more is effective at reducing CTG signal relative to the cis configuration (Z isomer)
sensitivity of GCB and ABC type DLBCL lines (DLBCL cell lines; GCB and ABC type DLBCL): both of those lines are sensitive to JIB04
annexin-V positive cells (lymphoma cell lines): increase in annexin-V positive cells in a dose-dependent manner
production of cleaved PARP (PARP): increased production of cleaved PARP
CDKN1A expression (OCI-Ly1 cell lines; FIGS. 7B and 7C): significantly upregulated
downregulated pathways (GSEA) (OCI-Ly1 cell lines; [5]): downregulation of “E2F targets” and “Myc-targets”
upregulated pathways (GSEA) (OCI-Ly1 cell lines; [5]): upregulation of “apoptosis” and “p53”-pathways
cell cycle [1]: cell cycle arrest
levels of Ikaros family members [2]: downregulates levels of members of Ikaros family, such as IKZF1 and IKZF3
canonical Wnt signaling (canonical Wnt signaling): inhibits canonical Wnt signaling
tumor burden (Ly1 cells [3]): reduction in tumor burden within a short window of treatment
survival (Ly1 cells [4]): increased survival as compared to vehicle treated mice

CCOC(=O)c1ccnc(CNCC(=O)N(CC)CCN(C)C)c1 [KDM5-C70]
OCI-Ly1 cell viability, Jumonji-inhibitors (OCI-Ly1): only JIB04 decreased OCI-Ly1 cell viability significantly

CN(C)CCCNC(=O)c1ccc(-c2cc(O)c3ncccc3c2)cc1 [ML324]
OCI-Ly1 cell viability, Jumonji-inhibitors (OCI-Ly1): only JIB04 decreased OCI-Ly1 cell viability significantly

O=[N+]([O-])c1cc([N+](=O)[O-])c(/C=C/c2ccc(Cl)c(Cl)c2)cc1/C=C/c1ccc(Cl)c(Cl)c1 [NSC636819]
OCI-Ly1 cell viability, Jumonji-inhibitors (OCI-Ly1): only JIB04 decreased OCI-Ly1 cell viability significantly

Cc1cc(/C=C/c2ccc3cc(N(C)C)ccc3[n+]2C)c(C)n1-c1ccccc1 [Pyrvinium]
sensitivity of DLBCL cell lines (DLBCL cell lines; FIG. 22): sensitive to Pyrvinium

— patent US20200155526A1, “TARGETING LYSINE DEMETHYLASES (KDMS) AS A THERAPEUTIC STRATEGY FOR DIFFUSE LARGE B-CELL LYMPHOMA” (THE CHILDREN'S MEDICAL CENTER CORPORATION, priority 2017, published 2020)
